Data as given in ChEMBL document CHEMBL1155109, “Discovery of 4-amino and 4-hydroxy-1-aroylindoles as potent tubulin polymerization inhibitors” (J Med Chem, 2008).

Assays:
[1] = tested on: KB; experiment: Growth inhibition of human KB cells after 72 hrs by methylene blue dye assay; type: functional, cell-based
[2] = Growth inhibition of P-gp 170/MDR overexpressing human KB-vin10 cells after 72 hrs by methylene blue dye assay; type: functional; details: KB-VIN10, 72 h
[3] = tested on: MKN-45; experiment: Growth inhibition of human MKN45 cells after 72 hrs by methylene blue dye assay; type: functional, cell-based; details: MKN-45, 72 h
[4] = Inhibition of microtubule associated protein rich tubulin polymerization
[5] = tested on: NCI-H460; experiment: Growth inhibition of human H460 cells after 72 hrs by methylene blue dye assay; type: functional, cell-based; details: NCI-H460, 72 h
[6] = Displacement of [3H]colchicine from microtubule associated protein rich tubulin at 1 uM
[7] = Displacement of [3H]colchicine from microtubule associated protein rich tubulin at 5 uM

IC50 [1] | IC50 [3] | IC50 [4] | IC50 [5] | inhibition [6] | inhibition [7] | Structure (SMILES) | IC50 [2]
> 5000 nM | > 5000 nM | – | > 5000 nM | – | – | COc1ccc2c(c1)cc(C(C#N)N(C)C)n2C(=O)c1cc(OC)c(OC)c(OC)c1 (configuration not stated) | > 5000 nM
> 5000 nM | > 5000 nM | – | > 5000 nM | – | – | COc1ccc(NC(=O)c2cc(OC)c(OC)c(OC)c2)cc1 | > 5000 nM
230 nM | 101 nM | – | 198 nM | – | – | CCOC(=O)c1cc2cc(OC)ccc2n1C(=O)c1cc(OC)c(OC)c(OC)c1 | 185 nM
> 5000 nM | > 5000 nM | – | > 5000 nM | – | – | COc1cc(C(=O)n2ccc3cc(CO)ccc32)cc(OC)c1OC | > 5000 nM
89 nM | 53 nM | 2600 nM | 98 nM | 27% | 55% | COc1ccc2c(c1)CCN2C(=O)c1cc(OC)c(OC)c(OC)c1 | 84 nM
371 nM | 314 nM | – | 353 nM | – | – | COc1cc(C(=O)n2ccc3cc(C)ccc32)cc(OC)c1OC | 400 nM
42 nM | 41 nM | 1500 nM | 52 nM | 72% | 89% | COc1cc(C(=O)n2c(C)cc3cc(N(C)C)ccc32)cc(OC)c1OC | 38 nM
> 5000 nM | > 5000 nM | – | > 5000 nM | – | – | COC(=O)c1ccc2c(ccn2C(=O)c2cc(OC)c(OC)c(OC)c2)c1 | 5000 nM
370 nM | 257 nM | – | 413 nM | – | – | COc1ccc2c(c1)CC(C)N2C(=O)c1cc(OC)c(OC)c(OC)c1 (configuration not stated) | 372 nM
> 5000 nM | > 5000 nM | – | > 5000 nM | – | – | CCOC(=O)c1c(C)n(C(=O)c2cc(OC)c(OC)c(OC)c2)c2ccc(OC)cc12 | > 5000 nM
> 5000 nM | > 5000 nM | – | > 5000 nM | – | – | COc1ccc2c(c1)cc(CO)n2C(=O)c1cc(OC)c(OC)c(OC)c1 | > 5000 nM
1.2 nM | 3.1 nM | 900 nM | 5.4 nM | 71% | 93% | COc1cc(C(=O)n2ccc3c(N)c(OC)ccc32)cc(OC)c1OC | 2.4 nM
> 5000 nM | > 5000 nM | – | > 5000 nM | – | – | COc1cc(C(=O)n2ccc3cc(C=O)ccc32)cc(OC)c1OC | > 5000 nM
> 5000 nM | > 5000 nM | – | > 5000 nM | – | – | COc1ccc2c(c1)c(CN(C)C)cn2C(=O)c1cc(OC)c(OC)c(OC)c1 | > 5000 nM
596 nM | 395 nM | > 5000 nM | 652 nM | – | – | COc1ccc2c(c1)CCCN2C(=O)c1cc(OC)c(OC)c(OC)c1 | 586 nM
> 5000 nM | > 5000 nM | – | > 5000 nM | – | – | COc1cc(C(=O)n2ccc3cc(CN(C)C)ccc32)cc(OC)c1OC | > 5000 nM
575 nM | 521 nM | – | 559 nM | – | – | COc1cc(C(=O)n2ccc3cc4c(cc32)OCO4)cc(OC)c1OC | 587 nM
345 nM | 156 nM | – | 334 nM | – | – | COc1cc(C(=O)n2c(C)cc3cc(N)ccc32)cc(OC)c1OC | 312 nM
0.3 nM | 0.6 nM | 600 nM | 0.5 nM | 94% | 97% | COc1cc(C(=O)n2c(C)cc3c(O)c(OC)ccc32)cc(OC)c1OC | 0.3 nM

Structure (SMILES) | IC50 [1] | IC50 [3] | IC50 [4] | IC50 [5] | inhibition [6] | inhibition [7] | IC50 [2]
COc1cc2c(c(OC)c1OC)-c1ccc(OC)c(=O)cc1[C@@H](NC(C)=O)CC2 [COLCHICINE] | 11.4 nM | 11 nM | 3000 nM | – | – | – | 125 nM
COc1ccc(/C=C\c2cc(OC)c(OC)c(OC)c2)cc1O [COMBRETASTATIN A4] | 2.2 nM | 5.6 nM | – | 2.8 nM | 85% | 93% | –
COc1cc(C(=O)n2ccc3c([N+](=O)[O-])c(OC)ccc32)cc(OC)c1OC | > 5000 nM | > 5000 nM | – | > 5000 nM | – | – | > 5000 nM
